Laboratory results as given in patent publication US20090197910A1, “NOVEL VIRAL REPLICATION INHIBITORS” (KATHOLIEKE UNIVERSITEIT LEUVEN, priority 2006, published 2009).

How the values were obtained:
HCV Subgenomic Replicon = experiment: HCV-Huh-5-2 replicon cell assay (luciferase); format: cell-based, Hepatitis C virus; settings: for EC50: Hepatitis C virus, HCV subgenomic replicon in Huh-5-2 cells, 72 hours, luciferase, read-out: EC50 (concentration required to inhibit luciferase activity in the replicon system by 50%); for SI (selectivity index, ratio of CC50 to EC50): Huh-5-2 cells
Protocol: (§1) Huh-5-2 cells [a cell line with a persistent HCV replicon I3891uc-ubi-neo/NS3-3′/5.1; replicon with firefly luciferase-ubiquitin-neomycin phosphotransferase fusion protein and EMCV-IRES driven NS3-5B HCV polyprotein] was cultured in RPMI medium (Gibco) supplemented with 10% fetal calf serum, 2 mM L-glutamine (Life Technologies), 1× non-essential amino acids (Life Technologies); 100 IU/ml penicillin and 100 ug/ml streptomycin and 250 ug/ml G418 (Geneticin, Life Technologies). Cells were seeded at a densitiy of 7000 cells per well in 96 well View Plate™ (Packard) in medium containing the same components as described above, except for G418. Cells were allowed to adhere and proliferate for 24 hr. At that time, culture medium was removed and serial dilutions of the test compounds were added in culture medium lacking G418. Interferon alfa 2a (500 IU) was included as a positive control. Plates were further incubated at 37° C. and 5% CO2 for 72 hours. Replication of the HCV replicon in Huh-5 cells results in luciferase activity in the cells. Luciferase activity is measured by adding 50 μl of 1× Glo-lysis buffer (Promega) for 15 minutes followed by 50 ul of the Steady-Glo Luciferase assay reagent (Promega). Luciferase activity is measured with a luminometer and the signal in each individual well is expressed as a percentage of the untreated cultures. Parallel cultures of Huh-5-2 cells, seeded at a density of 7000 cells/well of classical 96-well cell culture plates (Becton-Dickinson) are treated in a similar fashion except that no Glo-lysis buffer or Steady-Glo Luciferase reagent is added. Instead the density of the culture is measured by means of the MTS method (Promega).

[1] = Cytostatic effect on Huh-5-2 cells (MTS method, parallel cultures); format: cell-based; settings: human, read-out: CC50 (concentration required to inhibit the proliferation of exponentially growing Huh-5-2 cells by 50%)
Protocol: as §1

O=c1oc2ccccc2cc1CSc1nc2ccccc2[nH]1 [Compound 4a, 3-(1H-Benzoimidazol-2-ylsulfanylmethyl)-chromen-2-one]
EC50 (HCV Subgenomic Replicon): 26.6 µM | SI (selectivity index, ratio of CC50 to EC50) (HCV Subgenomic Replicon): 3.38 | CC50 at 72 h [1]: 90.1 µM

O=c1oc2ccccc2cc1CSc1nc2cc(F)ccc2[nH]1 [Compound 4b, 3-(5-Fluoro-1H-benzoimidazol-2-ylsulfanylmethyl)-chromen-2-one]
EC50 (HCV Subgenomic Replicon): 11.5 µM | SI (selectivity index, ratio of CC50 to EC50) (HCV Subgenomic Replicon): 3.89 | CC50 at 72 h [1]: 44.8 µM

O=C(c1ccccc1)c1ccc2[nH]c(SCc3cc4ccccc4oc3=O)nc2c1 [Compound 4c, 3-(5-Benzoyl-1H-benzoimidazol-2-ylsulfanylmethyl)-chromen-2-one]
EC50 (HCV Subgenomic Replicon): 6.61 µM | SI (selectivity index, ratio of CC50 to EC50) (HCV Subgenomic Replicon): 5.58 | CC50 at 72 h [1]: 36.8 µM

Cc1cc2nc(SCc3cc4ccccc4oc3=O)[nH]c2cc1C [Compound 4d, 3-(5,6-Dimethyl-1H-benzoimidazol-2-ylsulfanylmethyl)-chromen-2-one]
EC50 (HCV Subgenomic Replicon): 15.2 µM | SI (selectivity index, ratio of CC50 to EC50) (HCV Subgenomic Replicon): 4.37 | CC50 at 72 h [1]: 66.6 µM

O=c1oc2ccccc2cc1CSc1nc2cc(Cl)c(Cl)cc2[nH]1 [Compound 4e, 3-(5,6-Dichloro-1H-benzoimidazol-2-ylsulfanylmethyl)-chromen-2-one]
EC50 (HCV Subgenomic Replicon): 15.5 µM | SI (selectivity index, ratio of CC50 to EC50) (HCV Subgenomic Replicon): 4.80 | CC50 at 72 h [1]: 74.4 µM

Cc1cccc2cc(CSc3nc4ccccc4[nH]3)c(=O)oc12 [Compound 4f, 3-(1H-benzoimidazol-2-ylsulfanylmethyl)-8-methyl-chromen-2-one]
EC50 (HCV Subgenomic Replicon): 9.89 µM | SI (selectivity index, ratio of CC50 to EC50) (HCV Subgenomic Replicon): 2.77 | CC50 at 72 h [1]: 27.3 µM

O=c1oc2ccc(Br)cc2cc1CSc1nc2ccccc2[nH]1 [Compound 4g, 3-(1H-Benzoimidazol-2-ylsulfanylmethyl)-6-bromo-chromen-2-one]
EC50 (HCV Subgenomic Replicon): 3.98 µM | SI (selectivity index, ratio of CC50 to EC50) (HCV Subgenomic Replicon): 10.4 | CC50 at 72 h [1]: 41.7 µM

COc1cccc2cc(CSc3nc4cc(F)ccc4[nH]3)c(=O)oc12 [Compound 4h, 3-(5-Fluoro-1H-benzoimidazol-2-ylsulfanylmethyl)-8-methoxy-chromen-2-one]
EC50 (HCV Subgenomic Replicon): 15.9 µM | SI (selectivity index, ratio of CC50 to EC50) (HCV Subgenomic Replicon): 2.63 | CC50 at 72 h [1]: 41.9 µM

O=c1oc2ccc(Br)cc2cc1CSc1nc2cc(F)ccc2[nH]1 [Compound 4i, 6-Bromo-3-(5-fluoro-1H-benzoimidazol-2-ylsulfanylmethyl)-chromen-2-one]
EC50 (HCV Subgenomic Replicon): 3.36 µM | SI (selectivity index, ratio of CC50 to EC50) (HCV Subgenomic Replicon): 7.96 | CC50 at 72 h [1]: 26.7 µM

COc1cccc2cc(CSc3nc4cc(Cl)c(Cl)cc4[nH]3)c(=O)oc12 [Compound 4j, 3-(5,6-Dichloro-1H-benzoimidazol-2-ylsulfanylmethyl)-8-methoxy-chromen-2-one]
EC50 (HCV Subgenomic Replicon): 3.58 µM | SI (selectivity index, ratio of CC50 to EC50) (HCV Subgenomic Replicon): 3.12 | CC50 at 72 h [1]: 11.1 µM

O=c1oc2ccc(Br)cc2cc1CSc1nc2cc(Cl)c(Cl)cc2[nH]1 [Compound 4k, 6-Bromo-3-(5,6-dichloro-1H-benzoimidazol-2-ylsulfanylmethyl)-chromen-2-one]
EC50 (HCV Subgenomic Replicon): 2.29 µM | SI (selectivity index, ratio of CC50 to EC50) (HCV Subgenomic Replicon): 19.3 | CC50 at 72 h [1]: 44.1 µM

CC(=O)OCC1OC(n2c(SCc3cc4ccccc4oc3=O)nc3ccccc32)C(OC(C)=O)C(OC(C)=O)C1OC(C)=O (stereo not drawn) [Compound 7a, Acetic acid 3,5-diacetoxy-2-acetoxymethyl-6-[2-(2-oxo-2H-chromen-3-ylmethylsulfanyl)-benzoimidazol-1-yl]-tetrahydro-pyran-4-yl ester]
EC50 (HCV Subgenomic Replicon): 11.1 µM | SI (selectivity index, ratio of CC50 to EC50) (HCV Subgenomic Replicon): 6.88 | CC50 at 72 h [1]: 76.4 µM

CC(=O)OCC1OC(n2c(SCc3cc4ccccc4oc3=O)nc3cc(C)ccc32)C(OC(C)=O)C(OC(C)=O)C1OC(C)=O (stereo not drawn) [Compound 7b, Acetic acid 3,5-diacetoxy-2-acetoxymethyl-6-[5-methyl-2-(2-oxo-2H-chromen-3-ylmethylsulfanyl)-benzoimidazol-1-yl]-tetrahydro-pyran-4-yl ester]
EC50 (HCV Subgenomic Replicon): 8.28 µM | SI (selectivity index, ratio of CC50 to EC50) (HCV Subgenomic Replicon): 5.42 | CC50 at 72 h [1]: 44.8 µM

CC(=O)OCC1OC(n2c(SCc3cc4ccccc4oc3=O)nc3cc(F)ccc32)C(OC(C)=O)C(OC(C)=O)C1OC(C)=O (stereo not drawn) [Compound 7c, Acetic acid 3,5-diacetoxy-2-acetoxymethyl-6-[5-fluoro-2-(2-oxo-2H-chromen-3-ylmethylsulfanyl)-benzoimidazol-1-yl]-tetrahydro-pyran-4-yl ester]
EC50 (HCV Subgenomic Replicon): 3.88 µM | SI (selectivity index, ratio of CC50 to EC50) (HCV Subgenomic Replicon): 11.1 | CC50 at 72 h [1]: 43.1 µM

CC(=O)OCC1OC(n2c(SCc3cc4ccccc4oc3=O)nc3cc(Cl)c(Cl)cc32)C(OC(C)=O)C(OC(C)=O)C1OC(C)=O (stereo not drawn) [Compound 7d, Acetic acid 3,5-diacetoxy-2-acetoxymethyl-6-[5,6-dichloro-2-(2-oxo-2H-chromen-3-ylmethylsulfanyl)-benzoimidazol-1-yl]-tetrahydro-pyran-4-yl ester]
EC50 (HCV Subgenomic Replicon): 3.14 µM | SI (selectivity index, ratio of CC50 to EC50) (HCV Subgenomic Replicon): 6.33 | CC50 at 72 h [1]: 19.8 µM

CC(=O)OCC1OC(n2c(SCc3cc4cc(Br)ccc4oc3=O)nc3ccccc32)C(OC(C)=O)C(OC(C)=O)C1OC(C)=O (stereo not drawn) [Compound 7e, Acetic acid 4,5-diacetoxy-2-acetoxymethyl-6-[2-(6-bromo-2-oxo-2H-chromen-3-ylmethylsulfanyl)-benzoimidazol-1-yl]-tetrahydro-pyran-3-yl ester]
EC50 (HCV Subgenomic Replicon): 4.12 µM | SI (selectivity index, ratio of CC50 to EC50) (HCV Subgenomic Replicon): 10.4 | CC50 at 72 h [1]: 43.1 µM

CC(=O)OCC1OC(n2c(SCc3cc4cc(Br)ccc4oc3=O)nc3cc(F)ccc32)C(OC(C)=O)C(OC(C)=O)C1OC(C)=O (stereo not drawn) [Compound 7f, Acetic acid 3,5-diacetoxy-2-acetoxymethyl-6-[2-(6-bromo-2-oxo-2H-chromen-3-ylmethylsulfanyl)-5-fluoro-benzoimidazol-1-yl]-tetrahydro-pyran-4-yl ester]
EC50 (HCV Subgenomic Replicon): 3.33 µM | SI (selectivity index, ratio of CC50 to EC50) (HCV Subgenomic Replicon): 6.59 | CC50 at 72 h [1]: 21.9 µM

COc1cccc2cc(CSc3nc4cc(Cl)c(Cl)cc4n3C3OC(COC(C)=O)C(OC(C)=O)C(OC(C)=O)C3OC(C)=O)c(=O)oc12 (stereo not drawn) [Compound 7h, Acetic acid 3,4,5-triacetoxy-6-[5,6-dichloro-2-(8-methoxy-2-oxo-2H-chromen-3-ylmethylsulfanyl)-benzoimidazol-1-yl]-tetrahydro-pyran-2-ylmethyl ester]
EC50 (HCV Subgenomic Replicon): 4.35 µM | SI (selectivity index, ratio of CC50 to EC50) (HCV Subgenomic Replicon): 7.62 | CC50 at 72 h [1]: 33.1 µM

COc1cccc2cc(CSc3nc4cccnc4[nH]3)c(=O)oc12 [Compound 16b, 3-(3H-Imidazo[4,5-b]pyridin-2-ylsulfanylmethyl)-8-methoxy-chromen-2-one]
EC50 (HCV Subgenomic Replicon): 10.9 µM | SI (selectivity index, ratio of CC50 to EC50) (HCV Subgenomic Replicon): 2.78 | CC50 at 72 h [1]: 30.3 µM

O=c1oc2ccc(Br)cc2cc1CSc1nc2cccnc2[nH]1 [Compound 16c, 3-(3H-Imidazo[4,5-b]pyridin-2-ylsulfanylmethyl)-6-bromo-chromen-2-one]
EC50 (HCV Subgenomic Replicon): 6.8 µM | SI (selectivity index, ratio of CC50 to EC50) (HCV Subgenomic Replicon): 18.82 | CC50 at 72 h [1]: 128 µM

O=c1oc2ccccc2cc1CSc1nc2cnc(Cl)nc2[nH]1 [Compound 16d, 3-(2-Chloro-9H-purin-8-ylsulfanylmethyl)-chromen-2-one]
EC50 (HCV Subgenomic Replicon): 2.03 µM | SI (selectivity index, ratio of CC50 to EC50) (HCV Subgenomic Replicon): 53.69 | CC50 at 72 h [1]: 109 µM

COc1cccc2cc(CSc3nc4cnc(Cl)nc4[nH]3)c(=O)oc12 [Compound 16e, 3-(2-Chloro-9H-purin-8-ylsulfanylmethyl)-8-methoxy-chromen-2-one]
EC50 (HCV Subgenomic Replicon): 19.6 µM | SI (selectivity index, ratio of CC50 to EC50) (HCV Subgenomic Replicon): 4.80 | CC50 at 72 h [1]: 94 µM

O=c1oc2ccccc2cc1CSc1nc2ccccc2o1 [Compound 19a, 3-(Benzooxazol-2-ylsulfanylmethyl)-chromen-2-one]
EC50 (HCV Subgenomic Replicon): 11.7 µM | SI (selectivity index, ratio of CC50 to EC50) (HCV Subgenomic Replicon): 3.86 | CC50 at 72 h [1]: 45.2 µM

O=c1oc2ccc(Br)cc2cc1CSc1nc2ccccc2o1 [Compound 19c, 3-(Benzooxazol-2-ylsulfanylmethyl)-6-bromo-chromen-2-one]
EC50 (HCV Subgenomic Replicon): 11.8 µM | SI (selectivity index, ratio of CC50 to EC50) (HCV Subgenomic Replicon): 11.10 | CC50 at 72 h [1]: 131 µM

CC(=O)OCC1OC(n2c(SCc3cc4cc(Br)ccc4oc3=O)nc3ccccc32)CC(OC(C)=O)C1OC(C)=O (stereo not drawn) [Compound 22c, Acetic acid 3,4-diacetoxy-6-[2-(6-bromo-2-oxo-2H-chromen-3-ylmethylsulfanyl)-benzoimidazol-1-yl]-tetrahydro-pyran-2-ylmethyl ester]
EC50 (HCV Subgenomic Replicon): 4.08 µM | SI (selectivity index, ratio of CC50 to EC50) (HCV Subgenomic Replicon): 3.95 | CC50 at 72 h [1]: 16.1 µM
